According to ChEMBL document CHEMBL5465560, “Selectivity Literature for EUbOPEN Chemogenomic Library” (2024):
Numbering of substitutions follows the chain as printed.

How the values were obtained:
Conditions in all cases: at 100 nM
[1] = molecular target: Receptor-type tyrosine-protein kinase FLT3 (Homo sapiens) (UniProt P36888); assay: (§1) Selectivity interaction (KinomeScan (DiscoverX)) EUB0000695a FLT3
[2] = test system: T1, Receptor-type tyrosine-protein kinase FLT3 (Homo sapiens), P36888 [D835V]; assay: as §1
T1 sequence (whole entry): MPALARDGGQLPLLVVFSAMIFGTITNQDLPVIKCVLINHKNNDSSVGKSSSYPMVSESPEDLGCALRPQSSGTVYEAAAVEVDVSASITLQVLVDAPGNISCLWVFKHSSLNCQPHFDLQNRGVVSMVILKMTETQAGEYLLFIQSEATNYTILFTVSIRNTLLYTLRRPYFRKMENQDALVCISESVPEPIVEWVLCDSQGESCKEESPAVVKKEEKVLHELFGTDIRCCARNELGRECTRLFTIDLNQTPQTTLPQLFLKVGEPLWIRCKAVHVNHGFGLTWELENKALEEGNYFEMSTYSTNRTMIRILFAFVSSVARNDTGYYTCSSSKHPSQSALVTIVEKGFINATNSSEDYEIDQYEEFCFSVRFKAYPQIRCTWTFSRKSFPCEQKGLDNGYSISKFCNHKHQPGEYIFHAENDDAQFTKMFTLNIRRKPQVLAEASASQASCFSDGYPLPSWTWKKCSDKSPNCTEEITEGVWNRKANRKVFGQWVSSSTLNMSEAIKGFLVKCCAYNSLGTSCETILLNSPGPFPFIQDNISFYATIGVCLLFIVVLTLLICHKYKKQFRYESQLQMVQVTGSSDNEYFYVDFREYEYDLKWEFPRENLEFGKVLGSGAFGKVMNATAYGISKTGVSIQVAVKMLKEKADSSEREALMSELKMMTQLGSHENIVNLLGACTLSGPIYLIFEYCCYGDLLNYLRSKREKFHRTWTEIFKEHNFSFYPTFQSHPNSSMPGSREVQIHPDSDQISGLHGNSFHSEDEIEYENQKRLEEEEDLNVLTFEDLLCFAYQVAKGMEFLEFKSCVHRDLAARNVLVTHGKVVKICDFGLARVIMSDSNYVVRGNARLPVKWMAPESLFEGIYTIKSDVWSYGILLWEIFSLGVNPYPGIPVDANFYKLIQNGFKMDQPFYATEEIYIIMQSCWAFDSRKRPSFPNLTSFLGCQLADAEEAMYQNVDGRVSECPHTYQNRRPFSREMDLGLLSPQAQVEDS

[3] = test system: T2, Receptor-type tyrosine-protein kinase FLT3 (Homo sapiens), P36888 [D835Y]; assay: as §1
T2 sequence (whole entry): T1 sequence (whole entry) with V835Y

[4] = test system: T3, Receptor-type tyrosine-protein kinase FLT3 (Homo sapiens), P36888 [K663Q]; assay: as §1
T3 sequence (whole entry): T1 sequence (whole entry) with K663Q, V835D

[5] = test system: Receptor-type tyrosine-protein kinase FLT3 (Homo sapiens), P36888 [UNDEFINED MUTATION]; assay: as §1

Compound `Cc1cc(F)c(C(=O)Nc2cccc(-c3nncn3C(C)C)n2)cc1-n1cnc(C2CC2)c1` has a % of control [1] of 100%, a % of control [2] of 100% and a % of control [3] of 100%. For the same compound, the % of control [4] was 97% and the % of control [5] was 100%.
